In US8366933B2, “Method for bacterial treatment of effluents containing 2-ethylhexyl nitrate” (Commissariat a l'Energie Atomique, priority 2007, dated 2013):

Columns and labels:
zebrafish = conditions: acute toxicity; cited from earlier work
[1] = cited from earlier work
[2] = test system: C. urealyticum CIP-I-2126 strain; assay: 2-EHN degradation with a non-biodegradable hydrophobic liquid phase (respirometer); assay type: cell-based, Corynebacterium urealyticum; conditions: per flask containing 500 mL medium at 500 mg/L 2-EHN
Description: The capacity for degradation of 2-EHN by the C. urealyticum CIP-I-2126 strain in the presence of a non-biodegradable hydrophobic liquid phase used as a substrate reservoir is studied. The cultures were carried out at 30° C. with a respirometer so as to determine the kinetic characteristics of the biodegradation.
Two non-biodegradable liquid phases were tested: 2,2,4,4,6,8,8-heptamethylnonane (HMN) and silicone oil (Table 3).

[3] = cited from earlier work; remark: listed apart in the source
Daphnia = conditions: acute toxicity; cited from earlier work

SMILES: CCCCC(CC)CO[N+](=O)[O-] (stereo not shown) [2-EHN, 2-ethylhexyl nitrate]
- LC50 (50% lethal concentrations) (zebrafish): higher than its water solubility
- Solubility at 20° C. [1]: 12.6 µg/mL
- MAXIMUM DEGRADATION RATE (MMOLO2/J) ([2]; liquid phase added: HMN): 5.3 MMOLO2/J
- MAXIMUM DEGRADATION RATE (MMOLO2/J) ([2]; liquid phase added: Silicone oil): 5.8 MMOLO2/J
- MAXIMUM DEGRADATION RATE (MMOLO2/J) ([2]; liquid phase added: none): 0.3 MMOLO2/J
- Vapour pressure at 20° C. [3]: 27 Pa
- LC50 (50% lethal concentrations) (Daphnia): higher than its water solubility
